Some results are limits rather than exact numbers.

The assay deals with IRAK4 (Homo sapiens (Human), UniProt Q9NWZ3). The assay is described as follows: In vitro IRAK4 phosphorylation activity assay. The format is biochemical. The following applies: [γ-33P]-ATP, myelin basic protein substrate, 40 minutes at room temperature; categories. The gist of the method: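 Radiometric filter-binding assay, no compound–kinase preincubation; 8 mM MOPS pH 7.0, 0.2 mM EDTA, 10 mM Mg acetate, 0.33 mg/mL myelin basic protein substrate, [γ-33P]-ATP. Reaction 40 min at room temperature, stopped with phosphoric acid, scintillation counting; IC50 reported in categories.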
Sequence of IRAK4 (Q9NWZ3 whole entry): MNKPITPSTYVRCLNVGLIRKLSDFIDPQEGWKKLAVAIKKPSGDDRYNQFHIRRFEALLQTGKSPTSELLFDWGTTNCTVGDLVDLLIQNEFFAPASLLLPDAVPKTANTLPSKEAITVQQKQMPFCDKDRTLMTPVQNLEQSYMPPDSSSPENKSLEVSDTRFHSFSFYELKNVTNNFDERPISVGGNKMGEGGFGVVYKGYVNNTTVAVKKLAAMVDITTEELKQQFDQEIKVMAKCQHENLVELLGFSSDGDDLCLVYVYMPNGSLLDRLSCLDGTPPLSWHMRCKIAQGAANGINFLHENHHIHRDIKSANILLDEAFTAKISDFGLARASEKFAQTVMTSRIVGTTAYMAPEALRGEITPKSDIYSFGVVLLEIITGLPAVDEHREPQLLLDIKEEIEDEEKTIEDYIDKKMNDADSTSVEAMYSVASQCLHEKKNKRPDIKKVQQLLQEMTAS
For the molecule `COC[C@H]1CCCN1NC(=O)CCCCCc1cn(-c2ccccc2)c(NC(=O)c2cccc(-c3cn[nH]c3)c2)n1` [Example 99, (R)—N-(4-(6-((2-(methoxymethyl)pyrrolidin-1-yl)amino)-6-oxohexyl)-1-phenyl-1H-imidazol-2-yl)-3-(1H-pyrazol-4-yl)benzamide], the IC50 is less than 50 nM.
The same measure for `COC[C@@H]1CCCN1C(=O)CCCCCc1cn(-c2ccccc2)c(NC(=O)c2cccc(-c3cn[nH]c3)c2)n1` [Example 100, (S)—N-(4-(6-(2-(methoxymethyl)pyrrolidin-1-yl)-6-oxohexyl)-1-phenyl-1H-imidazol-2-yl)-3-(1H-pyrazol-4-yl)benzamide]: less than 50 nM.
In turn, `COC[C@H]1CCCN1C(=O)CCCCCc1cn(-c2ccccc2)c(NC(=O)c2cccc(-c3cn[nH]c3)c2)n1` [Example 101, (R)—N-(4-(6-(2-(methoxymethyl)pyrrolidin-1-yl)-6-oxohexyl)-1-phenyl-1H-imidazol-2-yl)-3-(1H-pyrazol-4-yl)benzamide] showed a 50% inhibitory concentration (IC50) of less than 50 nM.
The molecule `O=C(Nc1nc(CCCCCCN2CCCCC2)cn1-c1ccccc1)c1cccc(-c2cn[nH]c2)c1` [Example 102, N-(1-phenyl-4-(6-(piperidin-1-yl)hexyl)-1H-imidazol-2-yl)-3-(1H-pyrazol-4-yl)benzamide] gave an IC50 of less than 50 nM.
With `O=C(Nc1nc(CCO)cn1-c1ccccc1)c1cccc(-c2cn[nH]c2)c1` [Example 103, N-(4-(2-hydroxyethyl)-1-phenyl-1H-imidazol-2-yl)-3-(1H-pyrazol-4-yl)benzamide] the figure was less than 50 nM.
As to `O=C(Nc1nc(CCN2CCCCC2)cn1-c1ccccc1)c1cccc(-c2cn[nH]c2)c1` [Example 104, N-(1-phenyl-4-(2-(piperidin-1-yl)ethyl)-1H-imidazol-2-yl)-3-(1H-pyrazol-4-yl)benzamide], the half-maximal inhibitory concentration (IC50) was greater than 100 nM.
For `O=C(Nc1nc(CCCO)cn1-c1ccccc1)c1cccc(-c2cn[nH]c2)c1` [Example 105, N-(4-(3-hydroxypropyl)-1-phenyl-1H-imidazol-2-yl)-3-(1H-pyrazol-4-yl)benzamide], the IC50 is less than 50 nM.
Molecule `O=C(Nc1nc(CCCN2CCCCC2)cn1-c1ccccc1)c1cccc(-c2cn[nH]c2)c1` [Example 106, N-(1-phenyl-4-(3-(piperidin-1-yl)propyl)-1H-imidazol-2-yl)-3-(1H-pyrazol-4-yl)benzamide] showed an IC50 of less than 50 nM.
`O=C(Nc1nc(CCCN2CCOCC2)cn1-c1ccccc1)c1cccc(-c2cn[nH]c2)c1` [Example 107, N-(4-(3-morpholinopropyl)-1-phenyl-1H-imidazol-2-yl)-3-(1H-pyrazol-4-yl)benzamide] showed an IC50 of less than 50 nM.
In the case of `CN1CCN(CCCc2cn(-c3ccccc3)c(NC(=O)c3cccc(-c4cn[nH]c4)c3)n2)CC1` [Example 108, N-(4-(3-(4-methylpiperazin-1-yl)propyl)-1-phenyl-1H-imidazol-2-yl)-3-(1H-pyrazol-4-yl)benzamide], the concentration for half-maximal inhibition (IC50) is less than 50 nM.
With `O=C(Nc1nc(CCCNc2ccccc2)cn1-c1ccccc1)c1cccc(-c2cn[nH]c2)c1` [Example 109, N-(1-phenyl-4-(3-(phenylamino)propyl)-1H-imidazol-2-yl)-3-(1H-pyrazol-4-yl)benzamide], the IC50 is less than 50 nM.
As for `O=C(Nc1nc(CCCN2CCSCC2)cn1-c1ccccc1)c1cccc(-c2cn[nH]c2)c1` [Example 110, N-(1-phenyl-4-(3-thiomorpholinopropyl)-1H-imidazol-2-yl)-3-(1H-pyrazol-4-yl)benzamide], the IC50 is less than 50 nM.
In turn, `O=C(Nc1nc(CCCCO)cn1-c1ccccc1)c1cccc(-c2cn[nH]c2)c1` [Example 111, N-(4-(4-hydroxybutyl)-1-phenyl-1H-imidazol-2-yl)-3-(1H-pyrazol-4-yl)benzamide] yielded an IC50 of less than 50 nM.
In the case of `O=C(Nc1nc(CCCCNc2ccccc2)cn1-c1ccccc1)c1cccc(-c2cn[nH]c2)c1` [Example 112, N-(1-phenyl-4-(4-(phenylamino)butyl)-1H-imidazol-2-yl)-3-(1H-pyrazol-4-yl)benzamide], the IC50 was greater than 100 nM.
With `O=C(Nc1nc(CCCCN2CCCCC2)cn1-c1ccccc1)c1cccc(-c2cn[nH]c2)c1` [Example 113, N-(1-phenyl-4-(4-(piperidin-1-yl)butyl)-1H-imidazol-2-yl)-3-(1H-pyrazol-4-yl)benzamide] the figure was less than 50 nM; with `O=C(Nc1nc(CCCCN2CCOCC2)cn1-c1ccccc1)c1cccc(-c2cn[nH]c2)c1` [Example 114, N-(4-(4-morpholinobutyl)-1-phenyl-1H-imidazol-2-yl)-3-(1H-pyrazol-4-yl)benzamide], less than 50 nM; with `O=C(Nc1nc(CCCCN2CCSCC2)cn1-c1ccccc1)c1cccc(-c2cn[nH]c2)c1` [Example 115, N-(1-phenyl-4-(4-thiomorpholinobutyl)-1H-imidazol-2-yl)-3-(1H-pyrazol-4-yl)benzamide], less than 50 nM.
Consider `O=C(Nc1nc(CCCCCO)cn1-c1ccccc1)c1cccc(-c2cn[nH]c2)c1` [Example 116, N-(4-(5-hydroxypentyl)-1-phenyl-1H-imidazol-2-yl)-3-(1H-pyrazol-4-yl)benzamide], for which the IC50 is less than 50 nM.
In the case of `O=C(Nc1nc(CCCCCNc2ccccc2)cn1-c1ccccc1)c1cccc(-c2cn[nH]c2)c1` [Example 117, N-(1-phenyl-4-(5-(phenylamino)pentyl)-1H-imidazol-2-yl)-3-(1H-pyrazol-4-yl)benzamide], the IC50 was less than 50 nM.
`O=C(Nc1nc(CCCCCN2CCCCC2)cn1-c1ccccc1)c1cccc(-c2cn[nH]c2)c1` [Example 118, N-(1-phenyl-4-(5-(piperidin-1-yl)pentyl)-1H-imidazol-2-yl)-3-(1H-pyrazol-4-yl)benzamide] yielded an IC50 of less than 50 nM.
`O=C(Nc1nc(CCCCCN2CCOCC2)cn1-c1ccccc1)c1cccc(-c2cn[nH]c2)c1` [Example 119, N-(4-(5-morpholinopentyl)-1-phenyl-1H-imidazol-2-yl)-3-(1H-pyrazol-4-yl)benzamide]: the IC50 is less than 50 nM.
`O=C(Nc1nc(CCCCCN2CCSCC2)cn1-c1ccccc1)c1cccc(-c2cn[nH]c2)c1` [Example 120, N-(1-phenyl-4-(5-thiomorpholinopentyl)-1H-imidazol-2-yl)-3-(1H-pyrazol-4-yl)benzamide]: the IC50 is less than 50 nM.
`O=C(Nc1nc(CCCCCCO)cn1-c1ccccc1)c1cccc(-c2cn[nH]c2)c1` [Example 121, N-(4-(6-hydroxyhexyl)-1-phenyl-1H-imidazol-2-yl)-3-(1H-pyrazol-4-yl)benzamide] came in with an IC50 of less than 50 nM.
Take `O=C(Nc1nc(CCCCCCNc2ccccc2)cn1-c1ccccc1)c1cccc(-c2cn[nH]c2)c1` [Example 122, N-(1-phenyl-4-(6-(phenylamino)hexyl)-1H-imidazol-2-yl)-3-(1H-pyrazol-4-yl)benzamide]: the IC50 is 50 to 100 nM.
The same measure for `O=C(Nc1nc(CCCCCCN2CCOCC2)cn1-c1ccccc1)c1cccc(-c2cn[nH]c2)c1` [Example 123, N-(4-(6-morpholinohexyl)-1-phenyl-1H-imidazol-2-yl)-3-(1H-pyrazol-4-yl)benzamide]: less than 50 nM; for `O=C(Nc1nc(CCCCCCN2CCSCC2)cn1-c1ccccc1)c1cccc(-c2cn[nH]c2)c1` [Example 124, N-(1-phenyl-4-(6-thiomorpholinohexyl)-1H-imidazol-2-yl)-3-(1H-pyrazol-4-yl)benzamide]: less than 50 nM; for `O=C(Nc1nc(CCCCCC[N+]2([O-])CCCCC2)cn1-c1ccccc1)c1cccc(-c2cn[nH]c2)c1` [Example 125, 1-(6-(2-(3-(1H-pyrazol-4-yl)benzamido)-1-phenyl-1H-imidazol-4-yl)hexyl)piperidine 1-oxide]: less than 50 nM.
Take `O=C(Nc1nc(CCC[N+]2([O-])CCOCC2)cn1-c1ccccc1)c1cccc(-c2cn[nH]c2)c1` [Example 126, 4-(3-(2-(3-(1H-pyrazol-4-yl)benzamido)-1-phenyl-1H-imidazol-4-yl)propyl)morpholine 4-oxide]: the IC50 is less than 50 nM.
For the molecule `CCOC(C)n1cc(-c2cccc(C(=O)Nc3nc(CCCCCCN4CCCCC4)cn3-c3ccccc3)c2)cn1` (centres unmarked) [Example 138, 3-(1-(1-ethoxyethyl)-1H-pyrazol-4-yl)-N-(1-phenyl-4-(6-(piperidin-1-yl)hexyl)-1H-imidazol-2-yl)benzamide], the 50% inhibitory concentration (IC50) lay in the range of 50 to 100 nM.
The same measure for `CNC(=O)CCCc1cn(-c2ccccc2)c(NC(=O)c2cccc(-c3cnn(C)c3)c2)n1` [Example 139, 3-(1-methyl-1H-pyrazol-4-yl)-N-(4-(4-(methylamino)-4-oxobutyl)-1-phenyl-1H-imidazol-2-yl)benzamide]: less than 50 nM; for `Cn1cc(-c2cccc(C(=O)Nc3nc(CCCC(=O)O)cn3-c3ccccc3)c2)cn1` [Example 140, 4-(2-(3-(1-methyl-1H-pyrazol-4-yl)benzamido)-1-phenyl-1H-imidazol-4-yl)butanoic acid]: 50 to 100 nM; for `Cn1cc(-c2cccc(C(=O)Nc3nc(CCCC(=O)NC4CC4)cn3-c3ccccc3)c2)cn1` [Example 141, N-(4-(4-(cyclopropylamino)-4-oxobutyl)-1-phenyl-1H-imidazol-2-yl)-3-(1-methyl-1H-pyrazol-4-yl)benzamide]: less than 50 nM.
Consider `Cn1cc(-c2cccc(C(=O)Nc3nc(CCCC(=O)N4CCCCC4)cn3-c3ccccc3)c2)cn1` [Example 142, 3-(1-methyl-TH-pyrazol-4-yl)-N-(4-(4-oxo-4-(piperidin-1-yl)butyl)-1-phenyl-1H-imidazol-2-yl)benzamide], for which the concentration for half-maximal inhibition (IC50) is less than 50 nM.
For `CN1CCN(C(=O)CCCc2cn(-c3ccccc3)c(NC(=O)c3cccc(-c4cnn(C)c4)c3)n2)CC1` [Example 143, 3-(1-methyl-1H-pyrazol-4-yl)-N-(4-(4-(4-methylpiperazin-1-yl)-4-oxobutyl)-1-phenyl-1H-imidazol-2-yl)benzamide], the IC50 was less than 50 nM.
As for `CCN1CCN(C(=O)CCCc2cn(-c3ccccc3)c(NC(=O)c3cccc(-c4cnn(C)c4)c3)n2)CC1` [Example 144, N-(4-(4-(4-ethylpiperazin-1-yl)-4-oxobutyl)-1-phenyl-1H-imidazol-2-yl)-3-(1-methyl-1H-pyrazol-4-yl)benzamide], the IC50 is less than 50 nM.

The IC50 is the concentration that gives 50% inhibition. A high value points to weaker potency in that assay.

These data come from patent publication US12534452B2, “N-(1H-imidazol-2-yl)benzamide compound and pharmaceutical composition comprising the same as active ingredient” (KAINOS MEDICINE, INC., priority 2019, dated 2026).
